Here are results for 27 molecules from patent publication US20130116251A1, “Novel HSP90 Inhibitor” (Nippon Kayaku Kabushiki Kaisha, priority 2005, published 2013).

Assay [1] deals with Human breast cancer cells (MCF7). Nature of the assay: Antiproliferative activity on MCF7 cells (methylene blue method). Type of assay: cell-based. The conditions noted are these: Homo sapiens, MCF7, 72 h, MCF7 cells, 72 hours treatment, 660 nm absorbance after methylene blue staining; read-out: Antiproliferative activity IC50. The procedure:
Human breast cancer cells (MCF7) were treated with samples of various concentrations of known HSP90 inhibitors (that is, geldanamycin, herbimycin, radicicol and PU3) and the compounds of the present invention for 72 hours to confirm the effect of the triazole derivatives of the present invention on the cell growth. The cell ratio after the drug treatment was evaluated by measuring 660 nm absorbance by a microplate reader (BioRad) after staining the cells with the methylene blue method.
Cells were distributed to wells of 96 well plates at 2000 cells per well and treated with drugs 24 hours later. Further, the medium was removed 72 hours later and the cells were fixed by adding 50 μl of methanol and standing at room temperature for 2 minutes. After removing methanol, 100 μl of a staining solution was added and stained for 30 minutes. After washing 3 times with 200 μl of distilled water, 3% HCl solution was added, and the 660 nm absorbance of methylene blue was measured by a microplate reader (BioRad).
Next, the antiproliferative activity rate (%) was obtained by the formula (2) below.
Antiproliferative activity rate(%)=((B−A)/B)×100 Formula (2)
wherein B is 660 nm absorbance of the sample when the compound of the present invention is not added, and A is 660 nm absorbance of the sample when the compound of the present invention is added.
From the concentration of the triazole derivative of the present invention and the antiproliferative activity rate, the concentration was obtained using the above formula, at which the cell growth was suppressed by 50% by comparing with the control, and termed an IC50 value.
The antiproliferative activity rate (%) was obtained for SH-b04, SH-b05 and SH-b06 described above by a similar manner to that of the triazole derivatives of the present invention.

For the next assay, the target named is rHSP90. The assay is described as follows: HSP90 binding assay (BIACORE SPR; inhibition of binding between rHSP90 and fixed herbimycin A). Conditions: concentration inhibiting binding between rHSP90 (50 μg/mL) and fixed herbimycin A by 50%, BIACORE-X SPR; read-out: HSP90 inhibitory activity IC50. An excerpt: The HSP90 binding assay system is a system for detecting the change of mass as SPR signal caused by the binding between herbimycin A fixed on a sensor chip and rHSP90 by BIACORE-X, in which 17-(6-amino hexylamino)herbimycin A is fixed through a carboxyl group on the surface of the sensor chip (CM5, BIACORE) on which carboxymethyldextran has been introduced. The method was according to the protocol of BIACORE. In addition, 17-(6-aminohexylamino)herbimycin A was synthesizes as described below.
rHSP90 (Stressgen Biotechnologies Corp., Victoria, BC Canada) at 50 μg/mL was exposed for 10 seconds to the surface of the sensor chip on which herbimycin A was fixed and the SPR signal (numerical value of interaction) was detected.
After mixing rHSP90 protein (5×10^−7M (50 μg/mL)) with the triazole derivative of the present invention, the mixture was exposed for 10 seconds to the surface of the sensor chip on which herbimycin A was fixed, and the SPR signal was measured by BIACORE-X.
Next, using following formula (1), the inhibitory activity (binding inhibition rate (%)) of the compound of the present invention to the binding between rHSP90 and fixed herbimycin A was obtained.
binding inhibition rate(%)=((b−s)/b)×100 Formula (1)
wherein b is the SPR signal when the compound of the present invention is not added to the sample: s is the SPR signal when the compound of the present invention is added to the sample.

Where a name gives a salt, the structure may show the parent alone.

As a reminder, the IC50 is the point on the concentration scale where inhibition reaches its midpoint. Regarding `COCCOCCS(=O)(=O)c1nnc(-c2cc(C(C)C)c(O)cc2O)n1-c1ccc(OC)cc1` [SFN8-a08, 4-isopropyl-6-{5-[2-(2-methoxy-ethoxy)-ethanesulfonyl]-4-(4-methoxy-phenyl)-4H-[1,2,4]triazol-3-yl}-benzene-1,3-diol], the half-inhibitory concentration (IC50) in assay [1] stood at 2400 nM; on rHSP90, 600 nM.

In the case of `CC(C)c1cc(-c2n[nH]c(=O)n2-c2cnc(N3CCOCC3)nc2)c(O)cc1O` [OH-a17, 5-(2,4-dihydroxy-5-isopropyl-phenyl)-4-[2-(molpholin-4-yl)-pyrimidin-5-yl]-2,4-dihydro-[1,2,4]triazol-3-one], the half-maximal inhibitory concentration (IC50) in assay [1] stood at 26 nM; on rHSP90, 220 nM.

Take `CC(C)c1cc(-c2n[nH]c(=O)n2N2CCCCC2)c(O)cc1O` [OH-a24•TFA, 5-(2,4-dihydroxy-5-isopropyl-phenyl)-4-piperidin-1-yl-2,4-dihydro-[1,2,4]triazol-3-one]: the IC50 in assay [1] came out at 790 nM; at rHSP90 it was 1100 nM.

Regarding `COCCn1c(-c2cc(C(C)C)c(O)cc2O)nnc1S(C)(=O)=O` [SFN-a32, 4-isopropyl-6-[5-methanesulfonyl-4-(2-methoxy-ethyl)-4H-[1,2,4]triazol-3-yl]-benzene-1,3-diol], the figures for the concentration for half-maximal inhibition (IC50) (in assay [1]; at rHSP90) were greater than 20000 nM and 1900 nM, respectively.

Regarding `COc1ccc(-n2c(-c3cc(C(C)C)c(O)cc3O)nnc2S(=O)(=O)CC(=O)N(C)C)cc1` [SFN6-a08, 2-[5-(2,4-dihydroxy-5-isopropyl-phenyl)-4-(4-methoxy-phenyl)-4H-[1,2,4]triazol-3-sulfonyl]-N,N-dimethyl-acetamide], the 50% inhibitory concentration (IC50) was found to be 550 nM in assay [1] and 580 nM at rHSP90.

With `Oc1ccc(-c2nnc(S)n2-c2ccccc2)c(O)c1` [SH-b04, reference compound], the IC50 in assay [1] amounted to 5700 nM; on rHSP90 it was 170 nM.

For `CC(C)c1cc(-c2nnc(S(=O)(=O)CCCN(C)C)n2C(C)C)c(O)cc1O` [SFN2-a21•TFA], the figures for the IC50 (in assay [1]; on rHSP90) were 5200 nM and 1000 nM, respectively.

As for `COc1ccc(-n2c(SCCN(C)C)nnc2-c2cc(C(C)C)c(O)cc2O)cc1` [SR2-a08, 4-[5-(3-dimethylamino-ethylsulfanyl)-4-(4-methoxy-phenyl)-4H-[1,2,4]triazol-3-yl]-6-isopropyl-benzene-1,3-diol], the IC50 in assay [1] came out at 1800 nM; on rHSP90, 740 nM.

For `CC(C)c1cc(-c2n[nH]c(=S)n2CCc2cccnc2)c(O)cc1O` [SH-a28, 5-(2,4-dihydroxy-5-isopropylphenyl)-4-(2-pyridin-3-ylethyl)-2,4-dihydro-[1,2,4]triazol-4-thione], the 50% inhibitory concentration (IC50) is 7200 nM in assay [1] and 430 nM at rHSP90.

As to `CC(C)c1cc(-c2n[nH]c(=O)n2-c2ccc(C(=O)N3CCOCC3)cc2)c(O)cc1O` [OH-a14], the IC50 in assay [1] is 720 nM; at rHSP90 it was 190 nM.

`CC(C)c1cc(-c2n[nH]c(=S)n2C2CCN(Cc3ccccc3)CC2)c(O)cc1O` [SH-a25•TFA]: the IC50 in assay [1] stood at 890 nM; at rHSP90, 1000 nM.

Regarding `CC(C)c1cc(-c2nnc(S(C)(=O)=O)n2CCc2ccc[n+]([O-])c2)c(O)cc1O` [SFN-a29, 5-(2,4-dihydroxy-5-isopropylphenyl)-4-[2-(1-oxopyridin-3-yl)ethyl]-3-methanesulfonyl-4H-[1,2,4]triazole], the IC50 was greater than 20000 nM in assay [1] and 3600 nM on rHSP90.

With `CC(C)c1cc(-c2n[nH]c(=S)n2C2CCCCC2)c(O)cc1O` [SH-a23, 5-(2,4-dihydroxy-5-isopropyl-phenyl)-4-cyclohexyl-2,4-dihydro-[1,2,4]triazol-3-thione], the IC50 came to 330 nM in assay [1] and 420 nM at rHSP90.

Take `CC(C)c1cc(-c2nnc(S(C)(=O)=O)n2CCCN2CCCC2=O)c(O)cc1O` [SFN-a30]: the half-inhibitory concentration (IC50) is greater than 20000 nM in assay [1] and 2400 nM at rHSP90.

Consider `CC(C)c1cc(-c2n[nH]c(=O)n2CCN2CCOCC2)c(O)cc1O` [OH-a26•HCl, 5-(2,4-dihydroxy-5-isopropyl-phenyl)-4-(2-morpholin-4-yl-ethyl)-2,4-dihydro-[1,2,4]triazol-3-one], for which the half-inhibitory concentration (IC50) in assay [1] is 600 nM; on rHSP90, 180 nM.

Take `CC(C)c1cc(-c2nnc(S(C)(=O)=O)n2C(C)C)c(O)cc1O` [SFN-a21, 4-isopropyl-6-(4-isopropyl-5-methanesulfonyl-4H-[1,2,4]triazol-3-yl)-benzene-1,3-diol]: the values for the 50% inhibitory concentration (IC50) (in assay [1]; at rHSP90) were 16000 nM and 230 nM, respectively.

Take `CC(C)c1cc(-c2nnc(S(C)(=O)=O)n2CCCN2CCOCC2)c(O)cc1O` [SFN-a27, 4-isopropyl-6-[5-methanesulfonyl-4-[3-(molpholin-4-yl)-propyl]-4H-[1,2,4]triazol-3-yl]-benzene-1,3-diol]: the half-inhibitory concentration (IC50) in assay [1] is greater than 20000 nM; on rHSP90, 1600 nM.

In the case of `CC(C)c1cc(-c2n[nH]c(=O)n2-c2ccc(C(=O)O)cc2)c(O)cc1O` [OH-a12, 4-[3-(2,4-dihydroxy-5-isopropylphenyl)-5-oxo-1,5-dihydro-[1,2,4]triazol-4-yl]-benzoic acid], the IC50 is greater than 20000 nM in assay [1] and 190 nM on rHSP90.

Turning to `CC(C)c1cc(-c2n[nH]c(=O)n2CCCN2CCOCC2)c(O)cc1O` [OH-a27, 5-(2,4-dihydroxy-5-isopropyl-phenyl)-4-[3-(molpholin-4-yl)-propyl]-2,4-dihydro-[1,2,4]triazol-3-one], the concentration for half-maximal inhibition (IC50) in assay [1] was 220 nM; on rHSP90 it was 240 nM.

For the molecule `CC(C)c1cc(-c2nnc([S+](C)[O-])n2-c2ccc(C[N+]3([O-])CCOCC3)cc2)c(O)cc1O` (stereo not drawn) [SFX-a07-TF, 4-isopropyl-6-{5-methylsulfinyl-4-[4-(morpholin-4-oxid-4-ylmethyl)-phenyl]-4H-[1,2,4]triazol-3-yl}-benzene-1,3-diol trifluoroacetate], the concentration for half-maximal inhibition (IC50) in assay [1] turned out to be 12000 nM; at rHSP90 it was 64 nM.

In the case of `CC(C)c1cc(-c2nnc(S(C)(=O)=O)n2C(CO)CO)c(O)cc1O` [SFN-a33, 4-[4-(2-hydroxy-1-hydroxymethyl-ethyl)-5-methanesulfonyl-4H-[1,2,4]triazol-3-yl]-6-isopropyl-benzene-1,3-diol], the 50% inhibitory concentration (IC50) in assay [1] came out at 15000 nM; at rHSP90, 1300 nM.

On to `CC(C)Cn1c(-c2cc(C(C)C)c(O)cc2O)n[nH]c1=S` [SH-a22, 5-(2,4-dihydroxy-5-isopropyl-phenyl)-4-isobutyl-2,4-dihydro-[1,2,4]triazol-3-thione], for which the IC50 in assay [1] came to 450 nM; at rHSP90, 270 nM.

Take `CC#CCc1cc(-c2n[nH]c(=S)n2-c2ccc(CN3CCOCC3)cc2)c(O)cc1O` [SH-c02-TF, 4-(but-2-ynyl)-6-{5-mercapto-4-[4-morpholin-4-ylmethyl]-phenyl}-4H-[1,2,4]trioazol-3-yl]-benzene-1,3-diol trifluoroacetate]: the IC50 worked out at 480 nM in assay [1] and 250 nM at rHSP90.

As to `COc1ccc(-n2c(-c3cc(C(C)C)c(O)cc3O)nnc2S(=O)(=O)Cc2cccnc2)cc1` [SFN4-a08, 4-isopropyl-6-[4-(4-methoxy-phenyl)-5-(pyridin-3-ylmethanesulfonyl)-4H-[1,2,4]triazol-3-yl]-benzene-1,3-diol], the figures for the half-inhibitory concentration (IC50) (in assay [1]; on rHSP90) were 9900 nM and 230 nM, respectively.

Take `COc1ccc(-n2c(-c3cc(C(C)C)c(O)cc3O)nnc2S(=O)(=O)CC2CCCCO2)cc1` (stereo not drawn) [SFN7-a08, 4-isopropyl-6-[4-(4-methoxy-phenyl)-5-(tetrahydro-pyran-2-ylmethanesulfonyl)-4H-[1,2,4]triazol-3-yl]-benzene-1,3-diol]: the IC50 (in assay [1]; at rHSP90) was 720 nM in each case.

For `COc1ccc(-n2c(-c3cc(C(C)(C)C)c(O)cc3O)n[nH]c2=S)cc1` [SH-f08], the 50% inhibitory concentration (IC50) came out at 3000 nM in assay [1] and 560 nM on rHSP90.

Regarding `COc1ccc(-n2c(-c3cc(C(C)C)c(O)cc3O)n[nH]c2=S)cc1` [SH-a08, 5-(2,4-dihydroxy-5-isopropyl-phenyl)-4-(4-methoxy-phenyl)-2,4-dihydro-[1,2,4]-triazol-3-thione], the half-inhibitory concentration (IC50) was 57 nM in assay [1] and 85 nM at rHSP90.
